According to patent publication US20070281925A1, “USE OF SERTINDOLE FOR THE PREVENTIVE TREATMENT OF SUICIDAL BEHAVIOUR” (H. Lundbeck A/S, priority 2006, published 2007):

Key:
[1] = test system: patients with schizophrenia; assay: Sertindole Cohort Prospective (SCoP) study: fatal or non-fatal suicide attempts, sertindole vs risperidone; format: in vivo, human; details: for Committed or attempted suicide (rate/100 PYE): WRT period plus 30 days; for Hazard Ratio SERT as compared to RISP, committing or attempting suicide: Cox proportional hazards model adjusting for age, gender, history of suicide attempt, duration of schizophrenia; for Hazard ratio SERT/RISP, committed or attempted suicide: log-rank test, WRT plus 30 days
Source text: (§1) The Sertindole Cohort Prospective (SCoP) study was designed as a multi-national, multi-centre, prospective, randomized, open-label, two parallel-group, active-controlled study in human subjects with schizophrenia. The objective of the study is to compare the safety of sertindole with the safety of another standard antipsychotic drug (in this case risperidone) under normal conditions of use. In addition, the study collects information on fatal or non-fatal suicide attempts. The study was initiated in 2002 and is still ongoing.
(§2) To ensure that the study population is representative of patients with schizophrenia, only a limited number of selection criteria are imposed. In particular, patients are required to fulfil the criteria specified in the SmPCs (Core Summary of Product Characteristics) for both sertindole and risperidone; they are not to have received either sertindole or risperidone as their treatment immediately before entering the study, and they require treatment with but a single anti-schizophrenia drug product.
as §1, with “is” for “was designed as”, “multinational,” for “multi-national,”, “patients” for “human subjects”
The data in the study are reported for different periods. The Only-Randomized-Treatment-Period (ORT) covers the time the patient is receiving antipsychotic monotherapy with the randomized trial medication. However, patients can also be treated in combination with another antipsychotic if this is clinically necessary. When the patient receives an additional antipsychotic, the patient is censored and the data are reported for the Whole-Randomized-Treatment period (WRT). The primary period for reporting is the so-called Whole-Randomized-Treatment+30 period (WRT+30), which covers the time during which the patient receives randomized treatment plus 30 days after treatment discontinuation. Finally, the period during which the patient is followed even after the treatment has been stopped is called the Whole-Follow-up-Period (WFP).
as §2, with “fulfill” for “fulfil”, “SmPCs” for “SmPCs (Core Summary of Product Characteristics)”, “antipsychotic drug.” for “anti-schizophrenia drug product.”
Throughout the treatment period patients are dosed according to the treatment recommendations in their respective SmPCs. […]
Regarding attempted suicide, the analysis comprised only those events for which the investigators confirmed that the patients actually tried to commit suicide. Events such as intentional overdose and intentional self-injury were clarified by the investigators and were not included in the analysis unless the investigators confirmed that they were real suicide attempts. The included events were coded as ‘suicide attempt’ in the database.
The above definition of attempted suicide has the advantage of making it possible combine this event with completed suicide and to analyze the time until either event occurs. This can be done since all patients are randomised to start new treatment with either sertindole or risperidone.
All events occurring in the Whole Randomised Treatment (WRT) period plus 30 days were considered for analysis, up until the data cut-off. The WRT period is the period from start to stop of randomised treatment. The null hypothesis of equality of hazards between treatment groups was tested using the log-rank test. […]

[2] = test system: patient population of clinical trials of atypical antipsychotics; details: between sertindole, olanzapine and risperidone; cited from earlier work
[3] = test system: patients with schizophrenia; assay: Twelve-month open-label study of sertindole: time to sustained response; format: in vivo, human; details: 4-24 mg once daily for up to one year; 358 patients
Source text: These findings are further corroborated by an exploratory analysis of clinical data obtained from a twelve-month open-label study ([…] et al., “Identification of Potential Predictors of Sertindole Response in Patients with Schizophrenia”, to be published). In line with the emerging consensus criteria for response to antipsychotic treatment in schizophrenia ([…] et al., Am J Psychiatry 162:441-449, March 2005), the objective of this exploratory analysis is to identify potential predictors of response to sertindole in patients with schizophrenia. The study assessed the safety and efficacy of sertindole doses (4-24 mg) administered once daily for up to one year in US patients with schizophrenia.

[4] = test system: serotonin 5-HT2 receptors; details: cited from earlier work
dopamine D2 receptors = dopamine D2 receptors (Homo sapiens, UniProt P14416); details: cited from earlier work
Chain of dopamine D2 receptors (P14416 whole entry): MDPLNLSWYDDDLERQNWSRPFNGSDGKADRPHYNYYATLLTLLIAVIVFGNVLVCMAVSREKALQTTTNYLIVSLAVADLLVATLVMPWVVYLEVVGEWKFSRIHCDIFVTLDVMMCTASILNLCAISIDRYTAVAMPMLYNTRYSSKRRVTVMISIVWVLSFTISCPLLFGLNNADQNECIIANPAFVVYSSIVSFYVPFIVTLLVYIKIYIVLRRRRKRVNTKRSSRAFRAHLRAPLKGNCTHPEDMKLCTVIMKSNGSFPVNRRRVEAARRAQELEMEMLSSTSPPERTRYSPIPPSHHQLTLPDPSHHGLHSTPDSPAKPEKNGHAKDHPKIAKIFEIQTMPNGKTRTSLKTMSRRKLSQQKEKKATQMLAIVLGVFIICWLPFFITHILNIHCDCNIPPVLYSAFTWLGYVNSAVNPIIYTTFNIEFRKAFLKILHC

α1-adrenergic receptors = details: cited from earlier work
histaminergic receptors = details: cited from earlier work
muscarinic receptors = details: cited from earlier work
α2-adrenergic receptors = details: cited from earlier work
[5] = test system: A9 dopamine neurons (the nigrostriatal pathway); details: cited from earlier work
[6] = test system: A10 neurons (the mesolimbic and mesocortical pathways); details: cited from earlier work
[7] = compared with haloperidol, fluphenazine and chlorpromazine; cited from earlier work

Cc1nc2n(c(=O)c1CCN1CCC(c3noc4cc(F)ccc34)CC1)CCCC2 [risperidone]
Event rate in risperidone group relative to sertindole group (times higher) ([1]; Cox proportional hazards model, data cut-off 11.1 2007): approximately 1.7 times | Committed or attempted suicide (rate/100 PYE) ([1]; as of Nov. 1, 2006): 1.15 rate/100 PYE | Committed or attempted suicide (rate/100 PYE) ([1]; as of Nov. 1, 2007): 0.92 rate/100 PYE | Event rate in risperidone group relative to sertindole group (times higher) ([1]; data cut-off 11.1 2007, unadjusted): ~1.5 times | Event rate in risperidone group relative to sertindole group (times higher) ([1]; data up until 11 Jan. 2006): ~1.5 times | Short-term (450 days) hazard functions (mortality) [2]: no obvious difference

O=C1NCCN1CCN1CCC(c2cn(-c3ccc(F)cc3)c3ccc(Cl)cc23)CC1 [sertindole]
Hazard Ratio SERT as compared to RISP, committing or attempting suicide ([1]; as of Nov. 1, 2007): approximately 0.6 | Hazard Ratio SERT as compared to RISP, committing or attempting suicide ([1]; as of Nov. 1, 2007, listed as SERT): 0.614 | Committed or attempted suicide (rate/100 PYE) ([1]; as of Nov. 1, 2006): 0.85 rate/100 PYE | Committed or attempted suicide (rate/100 PYE) ([1]; as of Nov. 1, 2007): 0.62 rate/100 PYE | Hazard ratio SERT/RISP, committed or attempted suicide ([1]; data cut-off 11.1 2007): approximately 0.7 | Hazard ratio SERT/RISP, committed or attempted suicide ([1]; data cut-off 11.1 2007, listed as SERT): 0.69 | Hazard ratio SERT/RISP, committed or attempted suicide ([1]; data up until 11 Jan. 2006): approximately 0.7 | Hazard ratio SERT/RISP, committed or attempted suicide ([1]; data up until 11 Jan. 2006, listed as SERT): 0.72 | Incidence of suicide attempts (both fatal and non-fatal) in comparison with risperidone ([1]; schizophrenic patients on maintenance dose sertindole therapy): reduced significantly | Patients achieving sustained response (CGI-S<=3 and CGI-I<=2, sustained at least 8 weeks) [3]: 125 patients | Affinity for serotonin 5-HT2 receptors [4]: high affinity | Affinity for dopamine D2 receptors (dopamine D2 receptors): high affinity | Affinity for α1-adrenergic receptors (α1-adrenergic receptors): high affinity | Binding to histaminergic receptors (histaminergic receptors): limited binding | Binding to muscarinic receptors (muscarinic receptors): limited binding | Binding to α2-adrenergic receptors (α2-adrenergic receptors): limited binding | Depolarization inactivation in A9 dopamine neurons [5]: does not induce depolarization inactivation | Activity in A10 neurons [6]: retains activity | Short-term (450 days) hazard functions (mortality) [2]: no obvious difference | Adverse effects [7]: fewer adverse effects

Cc1cc2c(s1)Nc1ccccc1N=C2N1CCN(C)CC1 [olanzapine]
Short-term (450 days) hazard functions (mortality) [2]: no obvious difference
